From ChEMBL document CHEMBL1201862, “PubChem BioAssay data set” (2004)
The source made the active and inactive calls.

Columns and labels:
H9c2 = assay: cells; type: functional, cell-based; conditions: Rattus norvegicus, H9c2, Myocardium;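 also: confirmatory concentration-response retest of ultra-high-throughput screening hits for modulation of myocardial damage; cell death induced by hydrogen peroxide oxidative stress; compound pretreatment for 60 min then peroxide exposure for 2 h; potency is for protecting the cells against peroxide damage rather than for killing them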
[1] = Vero E6 cell cytotoxicity, dose response, cytotoxicity control for non-replicating M. tuberculosis project, secondary assay (AID 492998); type: functional, VeroE6; conditions: Vero C1008
cells [2] = type: functional
[3] = THP-1 cell cytotoxicity, dose response, cytotoxicity control for non-replicating M. tuberculosis project (AID 489025); type: functional
[4] = target: Heat shock protein HSP 90-alpha (Homo sapiens, UniProt P07900); type: functional, organism-based
[5] = target: FAD-linked sulfhydryl oxidase ALR (Homo sapiens, UniProt P55789); assay: ALR-catalysed DTT oxidation blockers – biochemical, H2O2 detection, luminescence, cherry-pick, dose response (AID 493248)
cells [6] = type: functional, cell-based
cells [7] = type: functional, cell-based; remark: listed apart in the source
[8] = NIH3T3 cell viability loss – ATP luminescence, mouse fibroblasts, counter-screen, dose response (AID 2010); type: functional, cell-based;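 also: cells exposed to compound for about 90 hours before reading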
[9] = Trypanosoma cruzi growth suppression in host cells – NIH3T3 host cells, beta-gal luminescence, confirmation (AID 2044); type: functional, cell-based;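 also: intracellular parasites grown in NIH/3T3 mouse fibroblasts as host cells; luminescent beta-galactosidase reporter signal from transgenic T. cruzi replicating inside host cells; inhibitors lower the luminescence signal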
[10] = tested on: Streptococcus sp. 'group A'; assay: Streptococcus pyogenes SK(-)GAS viability under kanamycin – luminescence, BacTiterGlo, confirmation, counter-screen for streptokinase expression inhibitor project, dose response (AID 1900); type: functional, organism-based
Streptokinase A = target: T1, Streptokinase A (Streptococcus pyogenes serotype M1, UniProt P10520); assay: viability-normalized secreted streptokinase activity reduction – plasminogen activation absorbance, OD405, dose response (AID 1914); type: functional, Streptococcus pyogenes M1 GAS;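 also: secreted streptokinase activity via plasminogen activation per viability signal from cell pellet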
T1 sequence (P10520 whole entry): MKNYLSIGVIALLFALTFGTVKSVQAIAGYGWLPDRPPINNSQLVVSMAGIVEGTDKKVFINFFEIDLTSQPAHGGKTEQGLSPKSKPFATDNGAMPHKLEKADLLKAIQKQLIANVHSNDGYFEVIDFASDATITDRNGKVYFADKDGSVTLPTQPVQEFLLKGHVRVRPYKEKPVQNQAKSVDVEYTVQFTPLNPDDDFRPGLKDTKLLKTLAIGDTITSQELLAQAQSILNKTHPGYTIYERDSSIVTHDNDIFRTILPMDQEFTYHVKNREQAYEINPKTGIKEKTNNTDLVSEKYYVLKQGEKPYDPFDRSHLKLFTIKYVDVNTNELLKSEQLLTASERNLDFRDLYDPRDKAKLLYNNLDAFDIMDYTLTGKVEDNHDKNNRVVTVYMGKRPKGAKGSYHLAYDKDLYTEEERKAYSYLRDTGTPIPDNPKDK

[11] = Luminescence Cell-Based Dose Response HTS to Identify Inhibitors of 5'UTR Stem-Loop Driven Prion Protein mRNA Translation in H4 Neuroglioblastoma Cells. [Related pubchem assays: 1827 (Project Summary), 1813 (Primary HTS)]; type: functional
[12] = alpha-synuclein stem-loop luciferase translation blockers – H4 neuroglioma cells, luminescence, confirmation (AID 1988); type: functional, cell-based
[13] = luciferase reporter signal suppression in cells – H4 neuroglioma cells, luminescence, dose response (AID 1990); type: functional, cell-based
Streptococcus = assay: GAS UMAA2166 growth inhibition – luminescence, BacTiterGlo, counter-screen for streptokinase expression inhibitor project, dose response (AID 1915); type: functional, organism-based;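 also: potency for reduction of bacterial viability or growth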
[14] = target: T2, Heat shock factor protein 1 (Mus musculus, UniProt P38532); assay: enhancement of HSF1-driven luciferase signal – cell-based, NIH3T3, luminescence, dose retest, confirmation (AID 435004); type: functional;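 also: stress induced by proteasome inhibitor MG132 added 30 min after compound; luciferase reporter driven by HSF1 response element in NIH3T3 cells; actives raise luminescence as potentiators of the MG132 stress response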
T2 sequence (P38532 whole entry): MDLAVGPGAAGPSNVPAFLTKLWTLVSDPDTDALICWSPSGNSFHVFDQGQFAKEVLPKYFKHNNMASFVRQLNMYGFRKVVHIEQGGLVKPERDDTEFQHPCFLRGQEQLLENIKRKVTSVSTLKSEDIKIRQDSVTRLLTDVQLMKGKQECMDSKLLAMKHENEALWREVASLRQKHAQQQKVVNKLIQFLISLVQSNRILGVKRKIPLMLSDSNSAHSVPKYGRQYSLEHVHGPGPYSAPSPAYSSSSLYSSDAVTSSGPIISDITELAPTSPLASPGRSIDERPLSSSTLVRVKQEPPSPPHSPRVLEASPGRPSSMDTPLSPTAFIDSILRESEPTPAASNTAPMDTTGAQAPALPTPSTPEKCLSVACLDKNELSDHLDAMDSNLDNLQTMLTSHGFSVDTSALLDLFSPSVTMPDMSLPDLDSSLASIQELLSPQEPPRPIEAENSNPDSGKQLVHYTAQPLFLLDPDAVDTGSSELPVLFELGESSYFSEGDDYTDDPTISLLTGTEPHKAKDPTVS

[15] = intracellular Trypanosoma cruzi inhibitors in host cells – cell-based, plate reader, cherry-pick samples, set 3, dose response (AID 651818); type: functional;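 also: compounds incubated with infected cells for about four days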
[16] = fluconazole-exposed Candida albicans growth modulators – fluorescence, retest, confirmation (AID 2467); type: functional, cell-based
[17] = NIH-3T3 fibroblast cytotoxicity, dose response, cytotoxicity control, cell-based, fluorescence, Alamar Blue, secondary assay (AID 2327); type: functional;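 also: NIH-3T3 mouse fibroblasts cultured with fluconazole at 8 µg/mL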

FAD-linked sulfhydryl oxidase ALR, sequence (P55789 whole entry): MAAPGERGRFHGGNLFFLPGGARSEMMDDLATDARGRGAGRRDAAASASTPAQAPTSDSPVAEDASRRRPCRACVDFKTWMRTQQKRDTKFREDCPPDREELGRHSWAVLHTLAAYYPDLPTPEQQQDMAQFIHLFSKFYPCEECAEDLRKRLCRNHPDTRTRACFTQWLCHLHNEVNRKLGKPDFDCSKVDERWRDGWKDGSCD

O=C(CSc1nnc(-c2cccnc2)o1)c1cc2ccccc2oc1=O
IC50 (H9c2): > 79 µM (inactive)

O=C(O)c1nn(CCOc2ccccc2F)c(=O)c2ccccc12
IC50 (H9c2): > 79 µM (inactive)

CCCN1Cc2cccc(C(N)=O)c2C1=O
IC50 (H9c2): > 79 µM (inactive)

CN(C)CCNc1ccc(-c2nnc(O)c3ccccc23)cc1[N+](=O)[O-]
IC50 (H9c2): > 79 µM (inactive)

O=C(NC1CCCCC1)c1nc(O)c2nnn(Cc3ccccc3Cl)c2n1
CC50 [1]: 19.9 µM (active)
IC50 (cells [2]): 29.9 µM (active)
CC50 [3]: > 40 µM (active)

O=C(NC(O)C(=O)c1cccs1)c1cccnc1 (stereo not given)
IC50 (H9c2): > 79 µM (inactive)

O=C1NC(=O)N(Cc2ccccc2Cl)C(=O)/C1=C/c1ccc[nH]1
CC50 [1]: 9.48 µM (active)
IC50 (cells [2]): 1.04 µM (active)
CC50 [3]: 9.35 µM (active)

O=S(=O)(NC1CC2CCC1C2)c1ccc(Br)cc1 (stereo not given)
AC50 [4]: 1.6 µM (active)

O=C(Cn1[nH]c(=O)c2ccccc2c1=O)OCC(=O)N(Cc1ccccc1)Cc1ccccc1
IC50 (H9c2): 36 µM (inactive)

CCn1c(S)nnc1CCn1c2ccccc2c2ccccc21
AC50 [5]: > 100 µM (inactive)

Cc1cc(NC(=O)CCN2C(=O)/C(=C\c3ccccc3)SC2=S)no1
EC50 (cells [6]): > 350 µM (not active)
EC50 (cells [7]): > 350 µM (not active)

Cc1ccc(NC2CCCN(C(=O)CCc3ccncc3)C2)cc1C (stereo not given)
AC50 [5]: 2.7 µM (active)
EC50 [8]: > 60 µM (not active)
EC50 [9]: 1.15 µM (active)

CCOC(=O)c1cc2c(ccn2C)n1CC(=O)N1CCN(c2ccccc2)CC1
EC50 (cells [6]): > 350 µM (not active)
EC50 (cells [7]): > 350 µM (not active)

COc1cccc(N2CCN(CC(=O)NCc3ccccc3)CC2)c1
AC50 [5]: 1.97 µM (active)

Cc1occc1-c1nnc(-c2cc([N+](=O)[O-])cc([N+](=O)[O-])c2)o1
EC50 [8]: > 60 µM (not active)
AC50 [4]: 2.74 µM (active)
IC50 (cells [2]): 1.37 µM (active)
EC50 [9]: 0.277 µM (active)

O=C(NCCCN1CCOCC1)c1cc(-c2cccs2)on1
EC50 (cells [6]): 77 µM (active)
EC50 (cells [7]): > 350 µM (not active)

COc1cc(OC)c(-c2nn3c(-c4ccco4)nnc3s2)cc1OC
IC50 (H9c2): > 79 µM (inactive)

CCN(CC)c1ccc(CNCc2cccs2)cc1
AC50 [5]: 0.742 µM (active)

O=C(COc1ccc([N+](=O)[O-])cc1)Nc1nc(-c2ccccn2)cs1
EC50 [10]: 5.56 µM (active)
EC50 (Streptokinase A): > 150 µM (not active)
EC50 [11]: 11.8 µM (active)
EC50 [12]: > 120 µM (not active)
EC50 [13]: > 120 µM (not active)
IC50 (H9c2): 11.8 µM (active)
EC50 [8]: 8.46 µM (active)
EC50 (Streptococcus): 13.8 µM (active)
EC50 [9]: 1.79 µM (active)

C=C(C)Cn1c(CCNC(=O)C(C)C)nc2ccccc21
EC50 (cells [6]): > 350 µM (not active)
EC50 (cells [7]): > 350 µM (not active)

CCCCc1c(C)nc(N)nc1O
EC50 (cells [6]): > 350 µM (not active)
EC50 (cells [7]): > 350 µM (not active)

C[C@H](CO)N1C[C@H](C)[C@@H](CN(C)S(=O)(=O)c2ccccc2)Oc2ccc(NC(=O)Nc3ccccc3)cc2C1=O
IC50 (H9c2): 13.3 µM (active)

O=C1N[C@H]2CC=C[C@H]2Nc2ccccc21
IC50 (H9c2): 44.8 µM (inactive)

O=C1OC(c2ccccc2)(c2ccc3cc(O)ccc3c2)c2ccccc21 (stereo not given)
AC50 [4]: 8.23 µM (active)

CSc1ccccc1OCc1cc(C(=O)N2CCN(C)C(c3ccccc3)C2)no1 (stereo not given)
AC50 [4]: 1.64 µM (active)

COc1ccc(N2C(=O)CSC2c2ccncc2)cc1 (stereo not given)
EC50 [14]: > 260 µM (inactive)
AC50 [5]: 0.124 µM (active)

CC(=O)Nc1cccc(-c2cc(NC(C)=O)c3ncc(-c4ccccc4)n3c2)c1
IC50 (H9c2): > 79 µM (inactive)

COc1cc(-c2cc(NC(C)=O)c3ncc(-c4ccc(C(C)=O)cc4)n3c2)cc(OC)c1OC
IC50 (H9c2): > 79 µM (inactive)

O=C(NCN1CCN(c2ccccc2)CC1)c1cnccn1
AC50 [5]: 4.03 µM (active)

C[C@H]1CN([C@@H](C)CO)C(=O)Cc2cc(NC(=O)Nc3cccc4ccccc34)ccc2O[C@@H]1CN(C)Cc1ccc2c(c1)OCO2
AC50 [15]: 5.35 µM (active)

C[C@@H]1CN([C@H](C)CO)C(=O)c2cccc(NC(=O)NC3CCCCC3)c2O[C@@H]1CN(C)Cc1ccc(C(=O)Nc2ccccc2N)cc1
AC50 [15]: 3.74 µM (active)

C[C@H]1CN([C@@H](C)CO)C(=O)Cc2cc(NC(=O)Cc3cn(C)c4ccccc34)ccc2O[C@H]1CN(C)Cc1ccc(C(=O)Nc2ccccc2N)cc1
AC50 [15]: 2 µM (active)

CC(C)NC(=O)Nc1cccc2c1O[C@H](CN(C)CC1CCCCC1)[C@@H](C)CN([C@H](C)CO)C2=O
AC50 [15]: 8.41 µM (active)

C[C@@H]1CN([C@@H](C)CO)C(=O)Cc2cc(NC(=O)Nc3ccc(C(F)(F)F)cc3)ccc2O[C@@H]1CN(C)Cc1ccncc1
AC50 [15]: 3.57 µM (active)

COc1ccc(S(=O)(=O)Nc2ccc3c(c2)CC(=O)N([C@@H](C)CO)C[C@@H](C)[C@@H](CN(C)Cc2ccc(Cl)c(Cl)c2)O3)cc1
AC50 [15]: 4.36 µM (active)

Cc1noc(C)c1S(=O)(=O)Nc1ccc2c(c1)C(=O)N([C@H](C)CO)C[C@H](C)[C@@H](CN(C)Cc1ccc(C(=O)Nc3ccccc3N)cc1)OCCCC[C@@H](C)O2
AC50 [15]: 2.18 µM (active)

Cc1ccc(S(=O)(=O)N(C)C[C@H]2Oc3c(NC(=O)Nc4ccc(C(F)(F)F)cc4)cccc3C(=O)N([C@@H](C)CO)C[C@H]2C)cc1
AC50 [15]: 1.55 µM (active)

O=C(N/N=C\c1cccc(Cl)c1)c1ccc(Cn2cccn2)o1
AC50 [5]: 0.641 µM (active)

C/C(CC(=O)Nc1cc(C)ccn1)=N\NC(=O)c1cccc(C)c1O
EC50 [16]: > 38 µM (not active)
AC50 [4]: 49.5 µM (active)
EC50 [17]: > 160 µM (inactive)

O=C(CCN1CCN(c2ccccc2)CC1)N/N=C/c1ccccc1O
EC50 (cells [6]): 91.8 µM (active)
EC50 (cells [7]): > 350 µM (not active)

C/C(=N\NC(=O)c1ccncc1)c1ccc(N(C)C)cc1
AC50 [5]: 5.01 µM (active)

c1ccc(Nc2nc(-c3ccccn3)cs2)cc1
CC50 [1]: > 20 µM (active)
IC50 (cells [2]): 0.19 µM (active)

CC1Oc2cc3oc4c(O)c(O)ccc4c(=O)c3c(O)c2C1(C)C (stereo not given) [TOXYLOXANTHONE C]
EC50 [10]: 5.91 µM (active)
EC50 [16]: > 38 µM (not active)
EC50 (Streptokinase A): > 150 µM (not active)
AC50 [4]: 38 µM (active)
EC50 [17]: > 150 µM (inactive)
EC50 (Streptococcus): 8.07 µM (active)
